{"source": "paper PMC8672371", "about": "(Biochemistry, 2021)", "key": {"TvVip": {"target": "TvVip (Trichoderma virens, UniProt G9MQB8)", "assay": "X-ray crystal structure", "type": "binding", "conditions": "3.2 Å; complex with SAM; active site"}, "MlVip": {"target": "MlVip (Methanofollis liminatans, UniProt J0S9F5)", "assay": "ddhNTP product by LC-MS", "type": "biochemical", "conditions": "SAM, dithionite; labelled compound (deuCTP)"}, "RnVip [1]": {"target": "T1, RnVip (Rattus norvegicus, UniProt O70600, K317A)", "T1 sequence (O70600 1-360 K317A)": "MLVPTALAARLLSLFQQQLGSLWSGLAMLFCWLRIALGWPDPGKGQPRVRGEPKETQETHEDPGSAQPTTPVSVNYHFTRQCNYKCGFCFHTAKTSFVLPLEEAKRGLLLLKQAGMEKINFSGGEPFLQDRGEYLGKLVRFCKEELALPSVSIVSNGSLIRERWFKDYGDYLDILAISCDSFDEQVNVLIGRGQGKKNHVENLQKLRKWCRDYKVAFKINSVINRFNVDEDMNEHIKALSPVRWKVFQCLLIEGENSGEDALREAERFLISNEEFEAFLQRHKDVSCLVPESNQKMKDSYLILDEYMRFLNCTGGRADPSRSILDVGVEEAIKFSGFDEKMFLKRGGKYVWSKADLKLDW", "assay": "ddhCTP formation", "type": "biochemical", "conditions": "SAM, dithionite"}, "NvVip": {"target": "NvVip (Nematostella vectensis, UniProt A7RNF3)", "assay": "X-ray crystal structure", "type": "binding", "conditions": "1.42 Å, [4Fe-4S], anaerobic, active site"}, "RnVip [2]": {"target": "T2, RnVip (Rattus norvegicus, UniProt O70600, H77A)", "T2 sequence (O70600 1-360 H77A)": "T1 sequence (O70600 1-360 K317A) with H77A, A317K", "assay": "ddhCTP formation", "type": "biochemical", "conditions": "SAM, dithionite"}}, "note": "Residue numbers refer to the chain shown, from its start."}
{"smiles": "O=c1ccn([C@@H]2O[C@H](COP(=O)(O)OP(=O)(O)OP(=O)(O)O)[C@@H](O)[C@H]2O)c(=O)[nH]1", "note": "[UTP]", "values": [{"measurement": "X-ray crystal structure", "setting": "TvVip", "result": "Crystals of TvVip bound to SAM and UTP exhibited diffraction"}]}
{"smiles": "Nc1ccn([C@@H]2O[C@H](COP(=O)(O)OP(=O)(O)OP(=O)(O)O)[C@@H](O)[C@H]2O)c(=O)n1", "note": "[CTP]", "values": [{"measurement": "ddhNTP product by LC-MS; deu5'-dA formation", "setting": "MlVip", "result": "only deuCTP was converted to the respective ddhNTP product by MlVip"}, {"measurement": "ddhCTP formation", "setting": "RnVip [1]", "result": "we generated a lysine to alanine variant in RnVip (K317A"}, {"measurement": "X-ray crystal structure", "setting": "NvVip; complex with SAM", "result": "omit maps show strong density for CTP in the catalytic site"}, {"measurement": "ddhCTP formation", "setting": "RnVip [2]", "result": "We generated the RnVip variant H77A and the MmVip variant H79A"}]}
{"smiles": "C[S+](CC[C@H](N)C(=O)O)C[C@H]1O[C@@H](n2cnc3c(N)ncnc32)[C@H](O)[C@@H]1O", "note": "(stereo partly drawn) [SAM]", "values": [{"measurement": "X-ray crystal structure", "setting": "NvVip; complex with CTP", "result": "The asymmetric unit of NvVip contains one protein chain, a 4Fe-4S cluster, CTP, and SAM"}]}
